# Measurements as given in publication PMC5613062 (Investigational New Drugs, 2017).
# “Also recorded” adds a separate entry of the source. Like-named read-outs stand apart in the source and are kept apart here.
# Experiments:
# [1] = Pharmacokinetics alone and in combination, selumetinib + temsirolimus arm; assay type: in vivo, human; conditions: human, plasma, iv, geometric mean (% CV); for AUC(0-t): read-out: AUC(0–8); for AUC(0–12): read-out: AUC(0–12); for Cmax: read-out: Cmax
# Method: PK parameters were derived using non-compartmental analysis. Cmax and tmax were determined by visual inspection of the plasma concentration-time profiles. AUC(0–12) was calculated by the linear trapezoidal rule. Where more than one maximum occurred, the reported value was assigned to the first occurrence.
# panel of other kinases = system: panel of other kinases; parameters: method as in earlier work; conditions: ref IB; cited from earlier work
# [2] = system: SW620 human colorectal cancer xenograft; parameters: method as in earlier work; conditions: ref IB, cited from earlier work
# [3] = system: HCT-116 human colorectal cancer xenograft; parameters: method as in earlier work; conditions: AZD6244 25 m/kg BD; docetaxel 15 mg/kg once weekly; ref IB; cited from earlier work
# [4] = system: Calu-6 human non-small cell lung cancer xenograft; parameters: method as in earlier work; conditions: AZD6244 3 mg/kg BD; AZD2171 […] QD; ref IB; cited from earlier work
# [5] = system: Lovo colorectal cancer xenograft; parameters: method as in earlier work; conditions: ref IB, cited from earlier work
# [6] = system: cytochrome P450 (CYP)3A, 1A and 2C; parameters: method as in earlier work; conditions: human hepatocytes, preliminary in vitro data; ref IB; cited from earlier work
# CYP1A2 = system: CYP1A2; parameters: method as in earlier work; conditions: at concentrations up to 50uM; ref IB; cited from earlier work
# CYP 2C8 = system: CYP 2C8; parameters: method as in earlier work; conditions: at concentrations up to 50uM; ref IB; cited from earlier work
# CYP 2C19 = system: CYP 2C19; parameters: method as in earlier work; conditions: at concentrations up to 50uM; ref IB; cited from earlier work
# CYP 3A4 = system: CYP 3A4; parameters: method as in earlier work; conditions: at concentrations up to 50uM; ref IB; cited from earlier work
# CYP2C9 = system: CYP2C9; parameters: method as in earlier work; conditions: weak direct inhibitor; ref IB; cited from earlier work
# expressed CYP isoforms = system: expressed CYP isoforms; parameters: method as in earlier work; conditions: ref IB; listed as AZD6244; cited from earlier work
# 3T3 = system: 3T3; parameters: method as in earlier work; conditions: 3T3 Neutral Red Uptake phototoxicity test; ref IB; cited from earlier work
# [7] = parameters: method as in earlier work; conditions: AZD6244-related material, rat and mouse; ref IB; cited from earlier work
# [8] = parameters: method as in earlier work; conditions: rat; ref IB; cited from earlier work
# [9] = parameters: method as in earlier work; conditions: mouse; ref IB; cited from earlier work
# [10] = parameters: method as in earlier work; conditions: human; ref IB; cited from earlier work
# [11] = parameters: method as in earlier work; conditions: monkey; ref IB; cited from earlier work
# [12] = parameters: method as in earlier work; conditions: dog; ref IB; cited from earlier work
# [13] = parameters: method as in earlier work; conditions: Minipig; ref IB; cited from earlier work
# p-glycoprotein (PgP) = system: p-glycoprotein (PgP); parameters: method as in earlier work; conditions: ref IB; cited from earlier work
# [14] = system: breast cancer resistance protein (BCRP); parameters: method as in earlier work; conditions: ref IB; cited from earlier work
# [15] = parameters: method as in earlier work; conditions: ref IB; cited from earlier work
# [16] = parameters: method as in earlier work; conditions: predominantly via an aneugenic mode of action; ref IB; cited from earlier work
# [17] = parameters: method as in earlier work; conditions: mice, at dose levels that do not induce maternal toxicity, preliminary; ref IB; cited from earlier work
# [18] = parameters: method as in earlier work; conditions: mouse, rat and monkey; dosed as free-base or Hyd-Sulfate; ref IB; cited from earlier work
# [19] = parameters: method as in protocol D1532C00004; conditions: protocol rationale for QD dosing; ref protocol D1532C00004; cited from earlier work
# [20] = parameters: method as in earlier work; conditions: either formulation of AZD6244; ref IB; cited from earlier work
# [21] = cited from earlier work
# [22] = ref Study ARRY-0401, cited from earlier work
# [23] = dosed alone, selumetinib 50 mg cohort (N = 25), temsirolimus 25 mg IV
# [24] = dosed alone, selumetinib 75 mg cohort (N = 6), temsirolimus 25 mg IV
# [25] = dosed in combination, selumetinib 50 mg BID (N = 22) + temsirolimus 25 mg IV
# [26] = dosed in combination, selumetinib 75 mg BID (N = 5) + temsirolimus 25 mg IV
smiles,measurement,setting,value
Cn1cnc2c(F)c(Nc3ccc(Br)cc3Cl)c(C(=O)NOCCO)cc21 [Selumetinib],AUC(0-t),[1]; [23],1840 ng·h/mL
same,AUC(0–12),[1]; [23],2150 ng·h/mL
same,Cmax,[1]; [23],666 ng/mL
same,AUC(0-t),[1]; [24],2990 ng·h/mL
same,AUC(0–12),[1]; [24],3370 ng·h/mL
same,Cmax,[1]; [24],1240 ng/mL
same,AUC(0-t),[1]; [25],1840 ng·h/mL
same,AUC(0–12),[1]; [25],2130 ng·h/mL
same,Cmax,[1]; [25],676 ng/mL
same,AUC(0-t),[1]; [26],2520 ng·h/mL
same,AUC(0–12),[1]; [26],2940 ng·h/mL
same,Cmax,[1]; [26],887 ng/mL
same,activity against a panel of other kinases,panel of other kinases,"inactive, or only minimally active"
same,Tumor growth inhibition as a % of control,"[2]; AZD6244 25 mg/kg BD, irinotecan 25 mg/kg once weekly, docetaxel 15 mg/kg once weekly",74 % of control
same,Tumor growth inhibition as a % of control,"[2]; temozolamide experiment, usual monotherapy schedules, doses not given",58 % of control
same,Tumor growth inhibition as a % of control,[3],64.9 % of control
same,Tumor growth inhibition as a % of control,[4],48.8 % of control
same,Tumor growth inhibition as a % of control,"[5]; AZD6244 25 mg/kg BD, Iressa 75 mg/kg QD",40.2 % of control
same,Tumor growth inhibition as a % of control,"[5]; rapamycin experiment, usual monotherapy schedules, doses not given",39 % of control
same,"induction of cytochrome P450 (CYP)3A, 1A and 2C",[6],weak inducer
same,inhibition of CYP1A2,CYP1A2,no inhibition
same,inhibition of CYP2C8,CYP 2C8,no inhibition
same,inhibition of CYP2C19,CYP 2C19,no inhibition
same,inhibition of CYP3A4,CYP 3A4,no inhibition
same,IC50,CYP2C9,44.7 µM
same,CYP isoforms metabolizing AZD6244,expressed CYP isoforms,metabolized by CYP1A2; also recorded: also metabolized by CYP 2C19 and CYP 3A4
same,cytotoxicity in the presence of UV light,3T3,enhanced
same,binding to melanin,[7],no evidence of binding to melanin
same,penetration into the CNS,[7],minimal
same,Protein binding,[8],99.7%
same,Protein binding,[9],98.9%
same,Protein binding,[10],98.4%
same,Protein binding,[11],97.7%
same,Protein binding,[12],94.6%
same,Protein binding,[13],93.7%
same,interaction with p-glycoprotein (PgP),p-glycoprotein (PgP),substrate but not an inhibitor
same,interaction with breast cancer resistance protein (BCRP),[14],substrate but not an inhibitor
same,mutagenic or clastogenic potential in vitro,[15],no evidence of mutagenic or clastogenic potential
same,mouse micronucleus result,[16],increase in micronucleated immature erythrocytes (MIE)
same,reproductive toxicology,[17],adverse effects on embryofetal development and survival
same,accumulation on multiple dosing,[18],no/minimal accumulation
same,half-life,[19],~ 6 hours
same,QTc prolongation,[20],no signal for QTc prolongation
same,"maximum tolerated dose (MTD), monotherapy",[21]; first-in-human trial of selumetinib monotherapy,75 mg BID
same,recommended phase II monotherapy dose,[21]; in vivo,75 mg BID
same,time at which Cmax attained (median),[22]; post-dose,approximately 1 hour
same,"half-life (t½), median",[22]; terminal elimination phase,approximately 11 hours
